≈ marks a conversion by molar mass, not a printed value. Like-named read-outs stand apart in the source and are kept apart here. Positions of bridges follow the written chain, without caps; N, C: chain ends. Non-standard residues stand in square brackets, D forms with d. Residues, ends and D or L forms follow the SMILES beside them. *: point of attachment. Benzoyl(3,5-Cl2) = O=C(c1cc(Cl)cc(Cl)c1)*; X18 = O=C(c1ccc(Cl)c(C(F)(F)F)c1)*; X21 = O=C(c1ccc(C(F)(F)F)c(Cl)c1)*; X20 = Cc1cc(C(=O)*)ccc1C(F)(F)F; X15 = O=C(c1ccc(Cl)c(F)c1)*; X19 = Cc1cc(Cl)cc(C(=O)*)c1; Dab = NCC[C@H](N)C(=O)O; Abu = CC[C@H](N)C(=O)O; Dap = NC[C@H](N)C(=O)O
Legend:
P. aeruginosa ATCC 27853 = assay: In vivo efficacy in mouse blood infection model (neutropenic Swiss mice); conditions: compound, free base 4 mg/kg intravenously 2 h after inoculation, blood at 4 h
Protocol: P. aeruginosa ATCC 27853, A. baumannii ATCC 19606 and K. pneumoniae FADDI-KP032 were subcultured on nutrient agar plates. One colony of each bacterial strain was dispersed in 10-mL CAMHB and incubated overnight. On day 2, an aliquot (0.2 mL) of each overnight culture suspension was dispersed in 20-mL CAMHB and incubated for 1.5-2.5 h for production of early log-phase growth bacterial culture. The bacteria in the early log-phase growth suspension were concentrated by centrifugation (3,220 g for 10 min) and re-suspended in sterile 0.9% saline for inoculation into mice. The bacterial cell concentration (colony forming unit [CFU]/mL) in saline was estimated by determining the optical density (OD) of the suspension at 600 nm, and confirmed by plating the suspension on nutrient agar plates. Swiss mice (22 to 28 g) were rendered neutropenic by injecting two doses of cyclophosphamide intraperitoneally, −4 day (150 mg/kg) and −1 day (100 mg/kg) prior to inoculation. Bloodstream infection was established by injecting intravenously 50 μL of early log-phase bacterial suspension (10^8-10^9 CFU/mL). The exact injection volume for each bacterial suspension was calculated based upon the OD value of the bacterial suspension and the desired inoculum for each isolate.
Solutions for administration of colistin, polymyxin B or the compounds were prepared at a concentration of 1 mg (free base) per mL in sterile 0.9% saline. At 2 h after inoculation, a mouse in the treatment groups was injected intravenously with one of the above solutions at 4 μL/g body weight (BW) (i.e. free base 4 mg/kg BW), while the same volume of saline was injected into the control mice. At 0 h or at 4 h after the administration of antibacterial drug or saline (control), animals were euthanised by inhalation of overdose isoflurane. The skin on the chest and fore-paws of each animal was thoroughly cleansed with 70% ethanol and Betadine®. The blood was collected via cardiac puncture using a 1-mL syringe rinsed with heparin (5,000 IU/mL), diluted serially in sterile 0.9% saline and plated on nutrient agar plates using a spiral plater.
The agar plates were incubated at 37° C. overnight. The bacterial colonies on the plate were counted and CFU/mL of the blood was calculated. The log10 CFU/mL of blood in each mouse was calculated. The in vivo activity of the compounds against the bacteria was calculated as the difference of the log10 CFU/mL values between the treated mice and the control mice at 4 h (Δ log=log10 (treated)CFU/mL−log10 (control)CFU/mL).
Any compound showing a decrease in bacterial loading (Δ log) of ≥2 at 4 h is considered to have good in vivo efficacy in this initial screening model.

Klebsiella pneumoniae = tested on: Klebsiella pneumoniae
How it was run: (§1)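 Lipopeptide TFA salts are serially diluted in cation-adjusted Mueller-Hinton broth and inoculated per the CLSI M100-S18 broth microdilution method. The MIC is then recorded, with polymyxin B sulphate included as a control.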

Enterobacter cloacae = tested on: Enterobacter cloacae
How it was run: as §1

Acinetobacter baumannii = tested on: Acinetobacter baumannii
How it was run: as §1

Pseudomonas aeruginosa = tested on: Pseudomonas aeruginosa
How it was run: as §1

[1] = Enterobacter cloacae FADDI-EC001, broth microdilution in CAMHB
[2] = Enterobacter cloacae FADDI-EC003, broth microdilution in CAMHB
[3] = Enterobacter cloacae FADDI-EC006, broth microdilution in CAMHB
[4] = Acinetobacter baumannii ATCC 17978, broth microdilution in CAMHB
[5] = Acinetobacter baumannii ATCC 19606, broth microdilution in CAMHB
[6] = Acinetobacter baumannii FADDI-AB034, broth microdilution in CAMHB
[7] = Pseudomonas aeruginosa ATCC 27853, broth microdilution in CAMHB
[8] = Pseudomonas aeruginosa FADDI-PA022, broth microdilution in CAMHB
[9] = Pseudomonas aeruginosa FADDI-PA025, broth microdilution in CAMHB

Compound | Δ log (Treated-Control at 4 h) (P. aeruginosa ATCC 27853) [log10 CFU/mL] | MIC (Klebsiella pneumoniae) [mg/L] | Minimum inhibitory concentration, Ec FADDI-EC001 (Enterobacter cloacae) [mg/L] | Minimum inhibitory concentration, Ec FADDI-EC003 (Enterobacter cloacae) [mg/L] | Minimum inhibitory concentration, Ec FADDI-EC006 (Enterobacter cloacae) [mg/L] | MIC (Acinetobacter baumannii) [mg/L] | Minimum inhibitory concentration, Ab A ATCC 17978 (Acinetobacter baumannii) [mg/L] | Minimum inhibitory concentration, Ab ATCC 19606 (Acinetobacter baumannii) [mg/L] | Minimum inhibitory concentration, Ab FADDI-AB034 (Acinetobacter baumannii) [mg/L] | MIC (Pseudomonas aeruginosa) [mg/L] | Minimum inhibitory concentration, Pa ATCC 27853 (Pseudomonas aeruginosa) [mg/L] | Minimum inhibitory concentration, Pa FADDI-PA022 (Pseudomonas aeruginosa) [mg/L] | Minimum inhibitory concentration, Pa FADDI-PA025 (Pseudomonas aeruginosa) [mg/L] | also measured
CC[C@@H]1NC(=O)[C@@H](CC(C)C)NC(=O)[C@H](CCN)NC(=O)[C@@H](NC(=O)[C@H](CN)NC(=O)[C@@H](NC(=O)[C@H](CCN)NC(=O)c2ccc(Cl)c(F)c2)[C@@H](C)O)CCNC(=O)[C@H]([C@@H](C)O)NC(=O)[C@H](CCN)NC(=O)[C@H](CCN)NC1=O [Compound 107] (X15-[Dab]T[Dap][Dab][Dab][dL][Abu][Dab][Dab]T; lactam 4-C) | −2.98 | 0.25 (≈ 0.219 µM) | 0.25 (≈ 0.219 µM) | 0.25 (≈ 0.219 µM) | 0.25 (≈ 0.219 µM) | 2 (≈ 1.75 µM) | 0.5 (≈ 0.437 µM) | 2 (≈ 1.75 µM) | 0.25 (≈ 0.219 µM) | 0.5 (≈ 0.437 µM) | 0.5 (≈ 0.437 µM) | 0.5 (≈ 0.437 µM) | 2 (≈ 1.75 µM) | 
CC[C@@H]1NC(=O)[C@@H](CC(C)C)NC(=O)[C@H](CCN)NC(=O)[C@@H](NC(=O)[C@H](CN)NC(=O)[C@@H](NC(=O)[C@H](CCN)NC(=O)c2ccc(Cl)c(C(F)(F)F)c2)[C@@H](C)O)CCNC(=O)[C@H]([C@@H](C)O)NC(=O)[C@H](CCN)NC(=O)[C@H](CCN)NC1=O [Compound 112] (X18-[Dab]T[Dap][Dab][Dab][dL][Abu][Dab][Dab]T; lactam 4-C) | −3.15 | 0.5 (≈ 0.419 µM) | 0.5 (≈ 0.419 µM) | 0.25 (≈ 0.209 µM) | 0.5 (≈ 0.419 µM) | 0.25 (≈ 0.209 µM) | <0.125 | 0.25 (≈ 0.209 µM) | 0.25 (≈ 0.209 µM) | 0.5 (≈ 0.419 µM) | 0.5 (≈ 0.419 µM) | 0.5 (≈ 0.419 µM) | 1 (≈ 0.838 µM) | 
CC[C@@H]1NC(=O)[C@@H](CC(C)C)NC(=O)[C@H](CCN)NC(=O)[C@@H](NC(=O)[C@H](CN)NC(=O)[C@@H](NC(=O)[C@H](CCN)NC(=O)c2cc(C)cc(Cl)c2)[C@@H](C)O)CCNC(=O)[C@H]([C@@H](C)O)NC(=O)[C@H](CCN)NC(=O)[C@H](CCN)NC1=O [Compound 114] (X19-[Dab]T[Dap][Dab][Dab][dL][Abu][Dab][Dab]T; lactam 4-C) | −2.57 | 0.25 (≈ 0.219 µM) | 0.25 (≈ 0.219 µM) | 0.25 (≈ 0.219 µM) | 0.25 (≈ 0.219 µM) | 2 (≈ 1.75 µM) | 0.5 (≈ 0.439 µM) | 2 (≈ 1.75 µM) | 0.5 (≈ 0.439 µM) | 0.5 (≈ 0.439 µM) | 0.5 (≈ 0.439 µM) | 1 (≈ 0.877 µM) | 1 (≈ 0.877 µM) | 
CC[C@@H]1NC(=O)[C@@H](CC(C)C)NC(=O)[C@H](CCN)NC(=O)[C@@H](NC(=O)[C@H](CN)NC(=O)[C@@H](NC(=O)[C@H](CCN)NC(=O)c2ccc(C(F)(F)F)c(Cl)c2)[C@@H](C)O)CCNC(=O)[C@H]([C@@H](C)O)NC(=O)[C@H](CCN)NC(=O)[C@H](CCN)NC1=O [Compound 115] (X21-[Dab]T[Dap][Dab][Dab][dL][Abu][Dab][Dab]T; lactam 4-C) | −2.71 | 0.125 (≈ 0.105 µM) | 0.25 (≈ 0.209 µM) | 0.25 (≈ 0.209 µM) | 0.25 (≈ 0.209 µM) | 0.5 (≈ 0.419 µM) | 0.5 (≈ 0.419 µM) | 0.5 (≈ 0.419 µM) | 0.5 (≈ 0.419 µM) | 1 (≈ 0.838 µM) | 1 (≈ 0.838 µM) | 0.5 (≈ 0.419 µM) | 1 (≈ 0.838 µM) | 
CC(C)C[C@H]1NC(=O)[C@H](CCN)NC(=O)[C@@H](NC(=O)[C@H](CN)NC(=O)[C@@H](NC(=O)[C@H](CCN)NC(=O)c2cc(Cl)cc(Cl)c2)[C@@H](C)O)CCNC(=O)[C@H]([C@@H](C)O)NC(=O)[C@H](CCN)NC(=O)[C@H](CCN)NC(=O)[C@H](C)NC1=O [Compound 117] ({Benzoyl(3,5-Cl2)}-[Dab]T[Dap][Dab][Dab][dL]A[Dab][Dab]T; lactam 4-C) | −2.99 |  |  |  |  |  |  |  |  |  |  |  |  | MIC (Klebsiella pneumoniae; K. pneumoniae FADDI-KP032): 0.25 mg/L (≈ 0.218 µM); Minimum inhibitory concentration, Ec FADDI-EC001 (Enterobacter cloacae; [1]): 0.25 mg/L (≈ 0.218 µM); Minimum inhibitory concentration, Ec FADDI-EC003 (Enterobacter cloacae; [2]): 0.25 mg/L (≈ 0.218 µM); Minimum inhibitory concentration, Ec FADDI-EC006 (Enterobacter cloacae; [3]): 1 mg/L (≈ 0.872 µM); MIC (Acinetobacter baumannii; A. baumannii ATCC 19606): 1 mg/L (≈ 0.872 µM); Minimum inhibitory concentration, Ab A ATCC 17978 (Acinetobacter baumannii; [4]): 0.25 mg/L (≈ 0.218 µM); Minimum inhibitory concentration, Ab ATCC 19606 (Acinetobacter baumannii; [5]): 1 mg/L (≈ 0.872 µM); Minimum inhibitory concentration, Ab FADDI-AB034 (Acinetobacter baumannii; [6]): 1 mg/L (≈ 0.872 µM); MIC (Pseudomonas aeruginosa; P. aeruginosa ATCC 27853): 0.25 mg/L (≈ 0.218 µM); Minimum inhibitory concentration, Pa ATCC 27853 (Pseudomonas aeruginosa; [7]): 0.25 mg/L (≈ 0.218 µM); Minimum inhibitory concentration, Pa FADDI-PA022 (Pseudomonas aeruginosa; [8]): 2 mg/L (≈ 1.74 µM); Minimum inhibitory concentration, Pa FADDI-PA025 (Pseudomonas aeruginosa; [9]): 2 mg/L (≈ 1.74 µM)
CC(C)C[C@H]1NC(=O)[C@H](CCN)NC(=O)[C@@H](NC(=O)[C@H](CN)NC(=O)[C@@H](NC(=O)[C@H](CCN)NC(=O)c2cc(Cl)cc(Cl)c2)[C@@H](C)O)CCNC(=O)[C@H]([C@@H](C)O)NC(=O)[C@H](CCN)NC(=O)[C@H](CCN)NC(=O)[C@H]([C@@H](C)O)NC1=O [Compound 118] ({Benzoyl(3,5-Cl2)}-[Dab]T[Dap][Dab][Dab][dL]T[Dab][Dab]T; lactam 4-C) | −3.53 |  |  |  |  |  |  |  |  |  |  |  |  | MIC (Klebsiella pneumoniae; K. pneumoniae FADDI-KP032): 0.25 mg/L (≈ 0.213 µM); Minimum inhibitory concentration, Ec FADDI-EC001 (Enterobacter cloacae; [1]): 1 mg/L (≈ 0.85 µM); Minimum inhibitory concentration, Ec FADDI-EC003 (Enterobacter cloacae; [2]): 0.25 mg/L (≈ 0.213 µM); Minimum inhibitory concentration, Ec FADDI-EC006 (Enterobacter cloacae; [3]): 0.5 mg/L (≈ 0.425 µM); MIC (Acinetobacter baumannii; A. baumannii ATCC 19606): 2 mg/L (≈ 1.7 µM); Minimum inhibitory concentration, Ab A ATCC 17978 (Acinetobacter baumannii; [4]): >32 mg/L; Minimum inhibitory concentration, Ab ATCC 19606 (Acinetobacter baumannii; [5]): 2 mg/L (≈ 1.7 µM); Minimum inhibitory concentration, Ab FADDI-AB034 (Acinetobacter baumannii; [6]): 1 mg/L (≈ 0.85 µM); MIC (Pseudomonas aeruginosa; P. aeruginosa ATCC 27853): 0.5 mg/L (≈ 0.425 µM); Minimum inhibitory concentration, Pa ATCC 27853 (Pseudomonas aeruginosa; [7]): 0.5 mg/L (≈ 0.425 µM); Minimum inhibitory concentration, Pa FADDI-PA022 (Pseudomonas aeruginosa; [8]): 2 mg/L (≈ 1.7 µM); Minimum inhibitory concentration, Pa FADDI-PA025 (Pseudomonas aeruginosa; [9]): 2 mg/L (≈ 1.7 µM)
CC[C@@H]1NC(=O)[C@@H](CC(C)C)NC(=O)[C@H](CCN)NC(=O)[C@@H](NC(=O)[C@H](CN)NC(=O)[C@@H](NC(=O)[C@H](CCN)NC(=O)c2ccc(C(F)(F)F)c(C)c2)[C@@H](C)O)CCNC(=O)[C@H]([C@@H](C)O)NC(=O)[C@H](CCN)NC(=O)[C@H](CCN)NC1=O [Compound 119] (X20-[Dab]T[Dap][Dab][Dab][dL][Abu][Dab][Dab]T; lactam 4-C) | −3.40 | <0.125 | <0.125 | <0.125 | 0.25 (≈ 0.213 µM) | 1 (≈ 0.852 µM) | 0.5 (≈ 0.426 µM) | 1 (≈ 0.852 µM) | 0.25 (≈ 0.213 µM) | 0.5 (≈ 0.426 µM) | 0.5 (≈ 0.426 µM) | 0.5 (≈ 0.426 µM) | 2 (≈ 1.7 µM) | 
